Activity calls are given as the source filed them.

The nature of experiment [1]: Late stage assay provider results from the probe development effort to identify inhibitors of the Plasmodium falciparum M17 Leucine Aminopeptidase (M17LAP): radiolabel-based cell-based dose response assay to identify compounds that inhibit P. falciparum growth in RBCs Set 2. In kind it is functional.
The target of experiment [2] is T1, Methionyl-tRNA synthetase, putative (Trypanosoma brucei brucei, UniProt Q38C91).
T1 sequence (Q38C91 whole entry): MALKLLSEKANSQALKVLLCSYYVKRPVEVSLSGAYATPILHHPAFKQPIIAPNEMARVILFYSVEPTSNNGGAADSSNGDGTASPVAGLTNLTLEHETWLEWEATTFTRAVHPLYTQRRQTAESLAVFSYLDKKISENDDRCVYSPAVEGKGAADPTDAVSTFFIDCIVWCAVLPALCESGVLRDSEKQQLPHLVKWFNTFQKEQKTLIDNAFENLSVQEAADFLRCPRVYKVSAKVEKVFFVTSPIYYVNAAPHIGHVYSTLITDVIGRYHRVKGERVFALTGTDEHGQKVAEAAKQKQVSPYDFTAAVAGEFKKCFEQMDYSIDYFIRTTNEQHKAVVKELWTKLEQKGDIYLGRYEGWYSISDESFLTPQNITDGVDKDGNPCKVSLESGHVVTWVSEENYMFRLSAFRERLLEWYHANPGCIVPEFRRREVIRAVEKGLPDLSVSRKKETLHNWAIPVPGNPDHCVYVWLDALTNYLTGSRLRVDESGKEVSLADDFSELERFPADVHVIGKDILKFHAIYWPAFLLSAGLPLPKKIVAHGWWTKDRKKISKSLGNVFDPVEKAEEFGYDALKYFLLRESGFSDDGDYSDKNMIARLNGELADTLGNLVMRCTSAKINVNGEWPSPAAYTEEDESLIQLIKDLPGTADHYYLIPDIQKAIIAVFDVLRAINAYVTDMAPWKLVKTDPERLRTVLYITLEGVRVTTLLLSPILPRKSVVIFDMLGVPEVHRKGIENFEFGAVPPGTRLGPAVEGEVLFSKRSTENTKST
Format: functional, Trypanosoma brucei brucei strain 927/4 GUTat10.1.

Experiment [3] is described as follows: Counterscreen for inhibitors of Trypanosoma brucei methionyl tRNA synthetase (MetRS): Luminescence-based cell-based high throughput dose response assay to identify compounds that are cytotoxic to Jurkat human T lymphocyte cells. Format: functional. (In general: Counterscreens check selectivity or assay interference.)
The target of experiment [4] is T1, Methionyl-tRNA synthetase, putative. Format: functional, Trypanosoma brucei brucei strain 927/4 GUTat10.1. This is another data set of the same source.
Experiment [5] addresses T2, Apoptotic protease-activating factor 1 (Homo sapiens, UniProt O14727).
T2 sequence (O14727 whole entry): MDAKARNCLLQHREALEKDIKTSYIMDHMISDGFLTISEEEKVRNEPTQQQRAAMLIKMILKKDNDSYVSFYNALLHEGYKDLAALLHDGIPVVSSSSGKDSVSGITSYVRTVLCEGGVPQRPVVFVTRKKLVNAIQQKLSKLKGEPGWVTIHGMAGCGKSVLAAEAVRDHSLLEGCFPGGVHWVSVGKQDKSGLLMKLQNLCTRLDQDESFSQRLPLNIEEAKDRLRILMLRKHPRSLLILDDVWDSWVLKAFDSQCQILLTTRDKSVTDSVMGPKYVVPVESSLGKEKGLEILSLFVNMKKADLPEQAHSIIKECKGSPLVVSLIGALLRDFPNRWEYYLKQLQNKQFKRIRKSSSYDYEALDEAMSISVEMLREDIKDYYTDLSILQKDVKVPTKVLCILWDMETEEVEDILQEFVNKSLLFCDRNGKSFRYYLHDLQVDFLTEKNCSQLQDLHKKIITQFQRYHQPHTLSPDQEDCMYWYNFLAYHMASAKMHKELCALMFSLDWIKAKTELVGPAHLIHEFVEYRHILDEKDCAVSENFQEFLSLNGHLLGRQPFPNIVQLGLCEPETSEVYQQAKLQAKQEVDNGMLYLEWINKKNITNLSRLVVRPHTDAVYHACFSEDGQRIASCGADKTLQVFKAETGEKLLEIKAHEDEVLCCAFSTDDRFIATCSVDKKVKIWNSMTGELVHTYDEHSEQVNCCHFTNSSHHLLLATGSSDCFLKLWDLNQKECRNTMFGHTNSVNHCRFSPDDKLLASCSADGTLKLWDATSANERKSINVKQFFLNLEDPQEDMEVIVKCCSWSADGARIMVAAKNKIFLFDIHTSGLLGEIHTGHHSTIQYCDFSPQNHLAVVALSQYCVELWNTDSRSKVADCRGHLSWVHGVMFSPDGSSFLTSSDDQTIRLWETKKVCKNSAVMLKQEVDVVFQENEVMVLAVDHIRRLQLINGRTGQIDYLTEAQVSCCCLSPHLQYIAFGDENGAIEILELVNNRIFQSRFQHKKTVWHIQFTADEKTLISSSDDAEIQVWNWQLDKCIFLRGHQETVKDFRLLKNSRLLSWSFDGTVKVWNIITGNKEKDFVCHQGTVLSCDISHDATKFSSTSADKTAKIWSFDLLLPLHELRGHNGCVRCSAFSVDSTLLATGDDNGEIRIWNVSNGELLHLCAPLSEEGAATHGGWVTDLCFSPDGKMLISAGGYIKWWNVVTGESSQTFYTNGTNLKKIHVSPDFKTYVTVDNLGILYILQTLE
Nature of the experiment: SAR analysis of small molecule Activators of Apaf-1 in a Fluorescent assay. Conditions: read-out: EC50_Mean. In kind it is functional.

The target in another experiment is Melanocortin receptor 4 (Homo sapiens, UniProt P32245). Format: functional, cell-based.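 Further: Cell-based assay with luminescence read-out, confirmatory dose-response testing for agonist activity of biased ligands at MC4R; human U2OS cells with tagged receptor and beta-arrestin; potency of agonists that increase receptor coupling to beta-arrestin.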
Experiment [6] concerns the target T3, Heat shock factor protein 1 (Mus musculus, UniProt P38532).
T3 sequence (P38532 whole entry): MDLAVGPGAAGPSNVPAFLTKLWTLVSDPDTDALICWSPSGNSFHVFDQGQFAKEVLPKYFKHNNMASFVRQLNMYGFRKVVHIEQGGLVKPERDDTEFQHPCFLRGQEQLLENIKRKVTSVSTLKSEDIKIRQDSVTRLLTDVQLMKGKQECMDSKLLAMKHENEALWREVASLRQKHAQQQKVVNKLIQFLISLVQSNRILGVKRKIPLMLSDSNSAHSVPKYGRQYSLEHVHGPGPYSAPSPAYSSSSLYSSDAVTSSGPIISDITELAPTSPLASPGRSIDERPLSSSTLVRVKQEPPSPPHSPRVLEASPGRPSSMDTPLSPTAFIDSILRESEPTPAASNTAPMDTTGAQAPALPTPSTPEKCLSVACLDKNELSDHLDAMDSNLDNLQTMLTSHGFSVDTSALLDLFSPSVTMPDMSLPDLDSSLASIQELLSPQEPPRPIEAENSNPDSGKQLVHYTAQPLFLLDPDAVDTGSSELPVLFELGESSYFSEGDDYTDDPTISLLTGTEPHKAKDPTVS
Kind of experiment: inhibition of MG132-induced HSE-luciferase signal, confirmation, cell-based, NIH3T3, luminescence, dose retest (AID 2382).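 Further: NIH3T3 fibroblasts with HSF1-driven luciferase reporter stressed by proteasome inhibitor MG132; luminescence from HSF1-driven luciferase expression after 8 hours of MG132 stress.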 Format: functional.

A further experiment deals with H9c2. Kind of experiment: cells. Format: functional, cell-based. Conditions: Rattus norvegicus, H9c2, Myocardium.
The target of another experiment is T4, Interleukin-8 (Homo sapiens, UniProt P10145).
T4 sequence (P10145 whole entry): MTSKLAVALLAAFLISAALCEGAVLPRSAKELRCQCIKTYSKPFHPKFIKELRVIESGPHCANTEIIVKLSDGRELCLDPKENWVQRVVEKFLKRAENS
Nature of the experiment: Dose Response confirmation of uHTS small molecule hits for cystic fibrosis induced NFkb Inhibitors in a PAF-induced IL8 counterscreen. In kind it is functional. Conditions: read-out: IC50_Mean.

Experiment [7] addresses DNA (cytosine-5)-methyltransferase 1 (Homo sapiens, UniProt P26358). Nature of the experiment: DNMT1 methyltransferase inhibitors, confirmation, biochemical, fluorescent molecular beacon (AID 602386). Format: functional.
The target in experiment [8] is T5, Ubiquitin-conjugating enzyme E2 N (Homo sapiens, UniProt P61088).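 Further: Dose-response confirmation in a TR-FRET assay detecting UBC13-driven polyubiquitin chain formation, inhibition measured.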
T5 sequence (P61088 whole entry): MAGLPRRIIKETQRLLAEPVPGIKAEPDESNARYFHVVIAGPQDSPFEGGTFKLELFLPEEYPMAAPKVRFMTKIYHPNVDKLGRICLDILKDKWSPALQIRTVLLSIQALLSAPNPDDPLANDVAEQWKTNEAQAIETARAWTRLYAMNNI
Format: functional.

In experiment [9] the target is T6, Sentrin-specific protease 8 (Homo sapiens, UniProt Q96LD8).
T6 sequence (Q96LD8 whole entry): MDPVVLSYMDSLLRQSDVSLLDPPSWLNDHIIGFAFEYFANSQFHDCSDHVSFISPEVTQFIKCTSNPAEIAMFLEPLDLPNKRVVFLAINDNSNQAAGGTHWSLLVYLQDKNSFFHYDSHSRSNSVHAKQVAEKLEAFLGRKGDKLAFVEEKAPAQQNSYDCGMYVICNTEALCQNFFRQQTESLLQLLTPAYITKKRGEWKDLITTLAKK
In kind it is functional.

Experiment [10] has as its target T6, Sentrin-specific protease 8. Format: functional. This is another data set of the same source.
The target of experiment [11] is T7, Low molecular weight phosphotyrosine protein phosphatase (Homo sapiens, UniProt P24666).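 Further: Dose-response confirmation assay measuring inhibition of LMPTP enzyme activity by fluorescence intensity read-out.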
T7 sequence (P24666 whole entry): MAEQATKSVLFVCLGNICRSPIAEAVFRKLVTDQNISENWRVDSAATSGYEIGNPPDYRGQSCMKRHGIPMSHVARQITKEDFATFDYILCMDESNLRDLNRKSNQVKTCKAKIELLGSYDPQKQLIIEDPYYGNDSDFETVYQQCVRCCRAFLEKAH
Format: functional. Conditions: read-out: IC50_Mean.

For a further experiment, the system named is Escherichia coli. Kind of experiment: microbe, parasite or virus in culture.
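Wherever EC50 Mean is given: caspase-3 cleavage of fluorogenic Rh110 DEVD substrate downstream of apoptosome activation.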

Chain of Melanocortin receptor 4 (P32245 whole entry): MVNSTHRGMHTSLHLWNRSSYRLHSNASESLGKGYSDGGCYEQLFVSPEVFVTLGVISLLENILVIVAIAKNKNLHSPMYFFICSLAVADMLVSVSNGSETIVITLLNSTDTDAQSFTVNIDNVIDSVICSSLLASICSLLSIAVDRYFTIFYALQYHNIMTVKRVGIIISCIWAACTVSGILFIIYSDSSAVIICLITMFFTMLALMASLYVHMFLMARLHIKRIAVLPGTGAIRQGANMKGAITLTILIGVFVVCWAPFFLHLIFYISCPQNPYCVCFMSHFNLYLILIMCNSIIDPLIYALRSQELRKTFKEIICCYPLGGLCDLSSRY
Chain of DNA (cytosine-5)-methyltransferase 1 (P26358 whole entry): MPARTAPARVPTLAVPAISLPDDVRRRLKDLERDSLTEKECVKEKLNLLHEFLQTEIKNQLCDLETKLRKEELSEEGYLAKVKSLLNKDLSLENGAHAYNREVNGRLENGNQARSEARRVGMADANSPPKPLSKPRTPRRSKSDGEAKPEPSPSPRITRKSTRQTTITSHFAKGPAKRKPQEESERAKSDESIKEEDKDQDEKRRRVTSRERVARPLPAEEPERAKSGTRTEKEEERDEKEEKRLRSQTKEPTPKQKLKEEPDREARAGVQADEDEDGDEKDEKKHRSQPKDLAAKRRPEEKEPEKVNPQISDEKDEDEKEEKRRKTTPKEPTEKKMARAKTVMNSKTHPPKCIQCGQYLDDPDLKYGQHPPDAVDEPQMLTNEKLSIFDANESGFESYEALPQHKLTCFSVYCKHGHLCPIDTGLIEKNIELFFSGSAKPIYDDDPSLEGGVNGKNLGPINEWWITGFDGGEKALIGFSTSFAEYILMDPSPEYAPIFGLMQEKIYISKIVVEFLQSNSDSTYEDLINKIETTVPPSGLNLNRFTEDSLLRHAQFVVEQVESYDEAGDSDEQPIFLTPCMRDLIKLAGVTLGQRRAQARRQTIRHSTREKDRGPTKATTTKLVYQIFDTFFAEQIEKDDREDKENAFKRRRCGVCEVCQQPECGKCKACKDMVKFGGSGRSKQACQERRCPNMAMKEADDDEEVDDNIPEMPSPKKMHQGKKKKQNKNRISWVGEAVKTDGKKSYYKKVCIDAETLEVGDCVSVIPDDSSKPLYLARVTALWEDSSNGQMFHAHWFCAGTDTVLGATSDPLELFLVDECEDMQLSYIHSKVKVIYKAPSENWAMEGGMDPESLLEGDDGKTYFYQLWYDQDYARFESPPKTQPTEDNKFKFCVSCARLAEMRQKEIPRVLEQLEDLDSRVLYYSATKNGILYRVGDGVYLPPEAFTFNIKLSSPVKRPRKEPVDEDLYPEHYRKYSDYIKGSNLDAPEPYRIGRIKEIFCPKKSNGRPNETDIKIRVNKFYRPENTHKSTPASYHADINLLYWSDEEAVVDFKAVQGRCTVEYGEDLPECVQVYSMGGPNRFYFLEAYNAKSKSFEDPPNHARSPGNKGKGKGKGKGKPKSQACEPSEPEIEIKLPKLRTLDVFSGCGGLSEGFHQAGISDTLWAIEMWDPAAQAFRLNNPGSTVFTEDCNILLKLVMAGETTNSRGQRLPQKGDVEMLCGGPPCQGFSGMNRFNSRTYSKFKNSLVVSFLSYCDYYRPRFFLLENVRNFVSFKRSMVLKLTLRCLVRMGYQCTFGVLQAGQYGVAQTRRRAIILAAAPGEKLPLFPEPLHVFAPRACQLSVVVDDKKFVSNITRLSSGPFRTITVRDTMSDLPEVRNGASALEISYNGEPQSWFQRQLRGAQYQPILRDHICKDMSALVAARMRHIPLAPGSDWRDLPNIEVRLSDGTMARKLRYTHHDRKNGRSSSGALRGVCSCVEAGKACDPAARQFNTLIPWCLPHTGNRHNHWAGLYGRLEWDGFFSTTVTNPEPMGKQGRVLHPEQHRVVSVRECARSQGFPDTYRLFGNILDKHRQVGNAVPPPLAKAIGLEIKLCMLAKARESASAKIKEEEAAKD

Consider `CC(C)COc1ccc(CC(=O)NO)cc1`, for which, in [1], the IC50 is 7.4 µM (active). On to `O=C(CC(=O)Nc1cccc(Cl)c1)N/N=C\c1ccccc1`, for which the IC50 in [2] is 6.25 µM (active); in [3], 83.3 µM (inactive); in [4], 3.94 µM (active). Take `COC(=O)c1coc(-c2ccc(-c3ccccc3)cc2)n1`: the EC50 in experiment [5] is > 100 µM (inactive).

In the case of `CCOc1ccc(Cn2c3ccc(OC)cc3c3nc4ccccc4nc32)cc1`, on Melanocortin receptor 4, the EC50 is > 89.2 µM (inactive).

In the case of `Cc1cc(C)n(CC(C)C(=O)Nc2ccc(Cl)c(Cl)c2)n1` (stereo not drawn), in [5], the EC50 is > 100 µM (inactive). Take `CCOc1ccc(-n2c(C)c(C(C)=O)c3cc(OC(C)=O)ccc32)cc1`: the EC50 in experiment [6] was 24.6 µM (active). Moreover, the IC50 was 9.08 µM (active) in the experiment with H9c2 and > 79 µM (inactive) at Interleukin-8. With `CC(=O)c1cccc(OCC(=O)N(C)CC(=O)NCc2ccco2)c1`, the IC50 in [7] was 6.09 µM (active). With `O=C(Cc1ccc2c(c1)CCCC2)NO`, the IC50 in experiment [1] was 5.5 µM (active). For `COc1cc2c(c(OC)c1OC)-c1ccc(O)c(=O)cc1[C@@H](N)CC2`, the IC50 in experiment [8] was > 20 µM (inactive); in experiment [9], > 100 µM (inactive); in experiment [10], 25.7 µM (active). Usually AC50 stands for the concentration giving half of the maximal activity seen. Consider `CCn1cc(C(=O)O)c(=O)c2cc(F)c(N3CCN(C(=S)NC(=O)c4ccc(F)c(F)c4)CC3)cc21`, for which the IC50 in experiment [11] was 16.6 µM (active). In addition, in the experiment with Escherichia coli, the concentration at half-maximal activity (AC50) is 3.38 µM (active). Take `Cc1cc(C)c2sc(N(CCCN(C)C)C(=O)c3ccc(Br)s3)nc2c1`: at Melanocortin receptor 4, the EC50 is > 89.2 µM (inactive).

Values taken from ChEMBL document CHEMBL1201862, “PubChem BioAssay data set” (2004).
